In ChEMBL document CHEMBL1122884, “Syntheses and complement inhibitory activities of 4-(2-phenyl-1H-indol-3-yl)cyclohexane-1-carboxylic acids” (J Med Chem, 1985):

How the values were obtained:
Homo sapiens = species on record: Homo sapiens; test: In vitro inhibitory activity against human classical complement pathway; assay type: functional
Cavia porcellus = test: Inhibition dose of the Reverse Passive Arthus Reaction (RPAR) in guinea pig after intravenous administration at a dose 80 mg/kg; assay type: functional

| IC50 (Homo sapiens) | Compound | inhibition in vivo at 80 mg/kg (Cavia porcellus) |
| --- | --- | --- |
| 105 µM | O=C(O)c1ccc(-c2c(-c3ccccc3)[nH]c3ccccc23)cc1 | – |
| 135 µM | O=C(O)C1CC=C(c2c(-c3ccccc3)[nH]c3ccccc23)CC1 (stereo not drawn) | 64% |
